Results published in patent US8088749B2, “Compositions and methods for treating cancer” (The Regents of the University of Michigan, priority 2007, dated 2012).
Entries after “also recorded” stand apart in the source; their conditions may differ.

B1: Dvl-2 shRNA 2: shRNA to Dvl-2, sense and anti-sense SEQ ID NOs: 9 and 10 (OriGene) (nucleic acid, listed as Homo sapiens)
sense: CACCGGACCGCATGTGGCTCAAGATCACCATCCCGAAGGATGGTGATCTTGAGCCACATGCGGTCC
antisense: AAAAGGACCGCAGTGGCTCAAGATCACCATCCTTCGGGATGGTGATCTTGAGCCACATGCGGTCC
modifications: the letters are possibly those of the target site
B2: Dvl-2 shRNA 1: shRNA to Dvl-2, sense and anti-sense SEQ ID NOs: 7 and 8 (OriGene) (nucleic acid, listed as Homo sapiens)
sense: CACCTGTAGCTGCCTTTGTTACTCTATTTATTTCGAAAAATAAATAGAGTAACAAAGGCAGCTACA
antisense: AAAATGTAGCTGCCTTTGTTACTCTATTTATTTATTCGAAATAAATAGAGTAACAAAGGCAGCTACA
modifications: the letters are possibly those of the target site

Experiments:
ATDC [1] = experiment: ATDC localization after nuclear export inhibition, Panc-1 cells; type: cell-based, human; conditions: 1 ng/ml, 6 hours
Method: In previous reports, ATDC was described as being predominately cytoplasmic in several cell types (see, e.g., Reymond A, et al., Embo J 2001; 20, 2140-2151; Brzoska P M, et al., Proc. Natl. Acad. Sci. USA 1995; 92, 7824-7828), conflicting with its potential role in the DNA damage response/DNA repair. In localization studies, it was determined that both endogenous ATDC and GFP-tagged ATDC had predominantly cytoplasmic localization, with some staining in the nucleus. To better understand how a protein with predominately cytoplasmic localization might be involved in the DNA response, wild type Panc-1 cells was treated with the nuclear export inhibitor leptomycin B (1 ng/ml) for 6 hours.

ATDC [2] = experiment: Western blot analysis of ATDC after miRNA mimic transfection, BXPC-3 cells; type: cell-based, human; conditions: 36 h after transfection with miRNA mimics
Method: (§1) FIGS. 31A and B are L3.6PL cells, and FIGS. 31 C and D are BXPC3 cells. The lanes in these figures is as follows: 1(a). Lipofectamine2000 only; 2(b). Control miRNA; 3. miR-299-5p; 4. miR-185; 5. miR-522; 6. miR-506; 7. miR-765; 8. miR-362; 9. miR-515-5p; 10. miR-661; 11. miR-525; c. miR-34a; d. miR-34b; e. miR-34c; f. miR-150; g. miR-296; h. miR-500; and i. miR-650.
(§2) For testing the miRNAs for ATDC, Western blot analysis of pancreatic cancer cells transfected was carried out with the miRNAs by Lipofactamine2000. […] They are miR-34a, miR-34c, miR-296, miR-650, miR-299-5p, miR-185, miR-765, miR-522, and miR-362.

ATDC [3] = experiment: Western blot analysis of ATDC after miRNA mimic transfection, L3.6PL cells; type: cell-based, human; conditions: 36 h after transfection with miRNA mimics
Method: as §1, §2

ATDC [4] = experiment: ATDC gene expression in gastric cancer KATO III cells; type: cell-based; conditions: human gastric cancer KATO III cells
Method: Next, the miRNAs regulation of ATDC by qRT-PCR was examined. 24 hours after miRNA mimic transfection of the cancer cells (100 pmol per well in 6-well plates), ATDC mRNA levels were measured by qRT-PCR with TaqMan SYBR Green PCR System (Applied Biosystems). Briefly, total RNA was extracted from the transfected cells using TRIZOL (Invitrogen) according to the manufacturer's instructions. Reverse transcription was performed using a TaqMan Reverse Transcription Kit (Applied Biosystems). For qRT-PCR, 1 μl of gene primers with SYBR Green (Applied Biosystems) in 20 μl of reaction volume was applied. Primers for ATDC: Forward: 5′-[…]-3′ (SEQ ID NO:45), Reverse: 5′-[…]-3′ (SEQ ID NO:46).

Dvl-2 [5] = experiment: Western blot after Dvl-2 shRNA transfection, HEK 293 cells; type: cell-based, human; conditions: transient transfection
Method: (§3) FIG. 26. The oncogenic effects of ATDC are mediated by Dvl-2. (A. B) The effects of Dvl-2 shRNA 1 or 2 on b-catenin expression is shown in representative Western blots of HEK 293 (A) and MiaPaCa2 cells […] with or without ATDC overexpression. (C, D) TCF reporter activity was assessed in Dvl-2 shRNA 1 or 2-transfected HEK 293 (C) or Mia PaCa2 cells (D) with (+) or without (−) ATDC overexpression. The results from 3 separate experiments, performed in triplicate (*p<0.05 vs empty vector-transfected cells). (E. F) MTS proliferation assays in Dvl-2 shRNA1 or 2-transfected HEK 293 (E) and MiaPaCa2 (F) cells with (+) or without (−) ATDC overexpression (n=3, *p<0.05 vs wild type cells). (G) TCF reporter activity was measured in HEK 293, SW480, DLD-1 and HCT-116 cells with vector (white bars) or ATDC (black bars) transfection using the β-catenin responsive TOPFLASH reporter and the mutant control FOPFLASH reporter. The mean of the TOP/FOP ratio, as compared with the activity, for three independent experiments, performed in triplicate. […] The experiments were repeated three times and the data is expressed as the mean±SE. […] 48 hours after transfection, cell growth rates were assessed. […]

Dvl-2 [6] = experiment: Western blot after Dvl-2 shRNA transfection, MiaPaCa2 cells; type: cell-based, human; conditions: transient transfection
Method: as §3

Molecule | ATDC protein levels (ATDC [2]) | ATDC protein levels (ATDC [3]) | other results
CCC(=C/[C@H](C)C/C=C/C(C)=C/[C@@H](C)C(=O)[C@@H](C)[C@H](O)[C@@H](C)C/C(C)=C/C(=O)O)/C=C/[C@@H]1OC(=O)C=C[C@@H]1C [leptomycin B] | – | – | ATDC localization (ATDC [1]): ATDC accumulation in the nucleus; ATDC localization (ATDC [1]; listed as leptomycin): nuclear retention of ATDC
miR-34a: miRNA mimic (UUGUUGGUCGAUUCUGUGACGGU; listed as RNA, chemistry not given here; listed as Homo sapiens) | potently reduced | potently reduced | ATDC gene expression (ATDC [4]): potently down-regulated; also recorded: significantly inhibited
miR-34c: miRNA mimic (CGUUAGUCGAUUGAUGUGACGGA; listed as RNA, chemistry not given here; listed as Homo sapiens) | potently reduced | potently reduced | –
miR-185: miRNA mimic (CUUGACGGAAAGAGAGGU; listed as RNA, chemistry not given here; listed as Homo sapiens) | potently reduced | potently reduced | –
miR-299-5p: miRNA mimic (UACAUACACCCUGCCAUUUGGU; listed as RNA, chemistry not given here; listed as Homo sapiens) | potently reduced | potently reduced | –
miR-362: miRNA mimic (UGAGUGUGGAUCCAAGGUUCCUAA; listed as RNA, chemistry not given here; listed as Homo sapiens) | potently reduced | potently reduced | –
miR-522: miRNA mimic (UUGUGAGAUUUCCCUUGGUAAAA; listed as RNA, chemistry not given here; listed as Homo sapiens) | potently reduced | potently reduced | –
miR-650: miRNA mimic (CAGGACUCUCGCGACGGAGGA; listed as RNA, chemistry not given here; listed as Homo sapiens) | potently reduced | potently reduced; also recorded: less potent | –
miR-765: miRNA mimic (GUAGUGGAAGGAAGAGGAGGU; listed as RNA, chemistry not given here; listed as Homo sapiens) | potently reduced | potently reduced; also recorded: less potent | –
B1 | – | – | levels of Dvl-2 (Dvl-2 [5]): effective; levels of Dvl-2 (Dvl-2 [6]): effective
B2 | – | – | levels of Dvl-2 (Dvl-2 [5]): effective; levels of Dvl-2 (Dvl-2 [6]): effective
